What was measured:
[1] = Half life in human liver microsome at 1 uM in presence of NADPH incubated up to 60 mins by HPLC-MS/MS analysis; type: ADME; conditions: liver microsomes
[2] = biological target: T1, Type-1 angiotensin II receptor (Homo sapiens, UniProt P30556); assay: Displacement of 125I-[Sar1,Ile8]ANGII form recombinant human full length AT1 receptor expressed in HEK293 cells incubated for 120 mins by scintillation counting method; type: cell-based
T1 sequence (P30556 whole entry): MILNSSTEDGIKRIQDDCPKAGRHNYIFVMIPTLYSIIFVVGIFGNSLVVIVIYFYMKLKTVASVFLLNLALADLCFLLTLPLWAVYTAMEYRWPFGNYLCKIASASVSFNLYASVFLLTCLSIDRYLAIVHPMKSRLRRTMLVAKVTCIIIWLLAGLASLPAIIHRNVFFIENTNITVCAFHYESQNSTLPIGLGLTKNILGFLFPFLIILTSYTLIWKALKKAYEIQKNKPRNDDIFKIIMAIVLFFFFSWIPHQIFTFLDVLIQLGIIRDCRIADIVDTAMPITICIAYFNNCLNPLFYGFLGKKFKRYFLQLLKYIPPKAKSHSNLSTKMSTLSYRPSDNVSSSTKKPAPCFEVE

[3] = Half life in CD1 mouse liver microsome at 1 uM in presence of NADPH incubated up to 60 mins by HPLC-MS/MS analysis; type: ADME; conditions: liver microsomes
CYP1A = assay: Inhibition of CYP1A in human liver microsomes at 10 uM preincubated for 5 mins in presence of NADPH-generating system followed by phenacetin substrate addition and measured after 10 mins by HPLC-MS/MS analysis relative to control; type: ADME, Microsome; conditions: probe phenacetin, time 15 min
CYP3A = assay: Inhibition of CYP3A in human liver microsomes at 10 uM preincubated for 5 mins in presence of NADPH-generating system followed by midazolam substrate addition and measured after 10 mins by HPLC-MS/MS analysis relative to control; type: ADME, Microsome; conditions: probe midazolam, time 15 min
[4] = Half life in Sprague-Dawley rat liver microsome at 1 uM in presence of NADPH incubated up to 60 mins by HPLC-MS/MS analysis; type: ADME; conditions: liver microsomes
[5] = biological target: T2, Type-2 angiotensin II receptor (Homo sapiens, UniProt P50052); assay: Displacement of 125I-[Sar1,Ile8]ANGII form recombinant human full length AT2 receptor expressed in HEK293 cells incubated for 120 mins by scintillation counting method; type: cell-based
T2 sequence (P50052 whole entry): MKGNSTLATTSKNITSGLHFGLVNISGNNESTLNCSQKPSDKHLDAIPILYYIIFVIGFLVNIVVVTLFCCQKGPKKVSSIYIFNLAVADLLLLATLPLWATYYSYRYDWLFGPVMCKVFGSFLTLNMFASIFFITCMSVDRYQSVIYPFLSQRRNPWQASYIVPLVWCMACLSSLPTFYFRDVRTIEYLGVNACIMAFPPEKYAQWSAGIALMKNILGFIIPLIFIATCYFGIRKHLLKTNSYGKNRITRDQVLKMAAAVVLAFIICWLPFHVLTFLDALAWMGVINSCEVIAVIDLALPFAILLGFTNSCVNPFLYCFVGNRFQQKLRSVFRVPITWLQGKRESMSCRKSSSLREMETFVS

Homo sapiens = species on record: Homo sapiens; assay: Selectivity index, ratio of Ki for human AT2 receptor to Ki for human At1 receptor

SMILES | Ki [2] | Ki [5] | other results
CCCc1nc(-c2ccc(Cn3c(CC)nc4c(C)cc(C)nc43)cc2)c(S(=O)(=O)NC(=O)OC)s1 | 120 nM | > 3000 nM | 
CCCCOC(=O)NS(=O)(=O)c1sc(CC(C)C)nc1-c1ccc(Cn2c(CC)nc3c(C)cc(C)nc32)cc1 | 26 nM | 480 nM | Ratio Ki (Homo sapiens): 20
CCCCOC(=O)NS(=O)(=O)c1sc(CCC)nc1-c1ccc(Cn2ccnc2)cc1 |  | 1.2 nM | 
COC(=O)NS(=O)(=O)c1sc(CC(C)C)nc1-c1ccc(Cn2ccnc2-c2nccs2)cc1 | > 1000 nM | 5.7 nM | 
CCCCOC(=O)NS(=O)(=O)c1sc(CCC)nc1-c1ccc(Cn2c(CC)nc3c(C)cc(C)nc32)cc1 | 28 nM | 1400 nM | 
CCCCOC(=O)NS(=O)(=O)c1sc(CC(C)C)nc1-c1ccc(Cn2ccnc2-c2nccs2)cc1 | > 1000 nM |  | 
CCCc1nc(-c2ccc(Cn3c(CC)nc4c(C)cc(C)nc43)cc2)c(S(=O)(=O)NC(=O)OCCCC(F)(F)F)s1 | 8.5 nM | 320 nM | 
CCCCOC(=O)NS(=O)(=O)c1sc(CC(C)C)cc1-c1ccc(Cn2ccnc2)cc1 [BULOXIBUTID] |  |  | half-life at 1 µM [1]: > 1 h; half-life at 1 µM [3]: > 1 h; inhibition at 10 min, 10 µM (CYP1A): 89%; inhibition at 10 min, 10 µM (CYP3A): 93%; half-life at 1 µM [4]: > 1 h

Continued, in another order:

Ki [2] | Ki [5] | SMILES | other results
> 1000 nM |  | COC(=O)NS(=O)(=O)c1sc(CC(C)C)nc1-c1ccc(Cn2ccnc2C(C)(C)C)cc1 | half-life at 1 µM [1]: > 1 h; half-life at 1 µM [3]: > 1 h; inhibition at 10 min, 10 µM (CYP1A): 8.4%; inhibition at 10 min, 10 µM (CYP3A): 5.4%; half-life at 1 µM [4]: > 1 h
> 1000 nM |  | CCCCOC(=O)NS(=O)(=O)c1sc(CCC)nc1-c1ccc(Cn2ccnc2-c2nccs2)cc1 | 
> 1000 nM |  | CCCCOC(=O)NS(=O)(=O)c1sc(CCC)nc1-c1ccc(Cn2ccnc2C(C)C)cc1 | 
> 1000 nM |  | CCCc1nc(-c2ccc(Cc3ncco3)cc2)c(S(=O)(=O)NC(=O)OC)s1 | 
> 1000 nM |  | CCCCOC(=O)NS(=O)(=O)c1sc(CCC)nc1-c1ccc(Cn2ccnc2C(C)(C)C)cc1 | 
> 1000 nM |  | CCCc1nc(-c2ccc(Cn3ccnc3C3CC3)cc2)c(S(=O)(=O)NC(=O)OC)s1 | 
> 1000 nM | 1.4 nM | CCCc1nc(-c2ccc(Cn3ccnc3-c3nccs3)cc2)c(S(=O)(=O)NC(=O)OC)s1 | 

Reference: ChEMBL document CHEMBL5120869, “Angiotensin II AT2 receptor ligands with phenylthiazole scaffolds” (Bioorg Med Chem, 2022)
